# Measurements as given in patent US9744164B2, “Neuroprotective polyphenol analogs” (Salk Institute for Biological Studies, priority 2011, dated 2017).
# Tested on: RGC-5 nerve cells
# Assay: chemical ischemia model (IAA) in RGC-5 cells
# Type: cell-based
# Settings: RGC-5, 30 μM IAA 2 hr, Baicalein 5-25 μM, also added 2 hrs after insult
# Experimental: FIG. 5D—RGC-5 nerve cells were treated with 30 μM iodoacetic acid for 2 hr in the presence or absence of 5-25 μM Baicalein. In some experiments, Baicalein was added 2 hr after the ischemic event. Cell survival (%) was measured after 24 hr by the MTT assay. Baicalein added before (□) or 2 hr after (●) ischemia. […] When these cells are starved for glucose, there is approximately 70% maximal survival in the presence of NGF. Baicalein promotes over 80% survival (FIG. 5C).
row,Structure (SMILES),cell death in chemical ischemia model
1,"O=c1cc(-c2ccccc2)oc2cc(O)c(O)c(O)c12 [Baicalein, 5,6,7-trihydroxyflavone]",prevents cell death

# Tested on: N9 microglial cells
# Assay: anti-inflammatory assay, LPS-induced microglial activation (NO release)
# Type: cell-based, mouse
# Settings: bacterial lipopolysaccharide, derivative 1-10 μM, 24 hr
# In short: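 Mouse N9 microglia in DME/7.5% DFCS stimulated with 10 μg/ml LPS alone or with derivatives (1-10 μM) for 24 hr. NO in cleared medium measured by Griess reagent, 10 min at room temperature, absorbance at 550 nm. Fisetin (10 μM) as positive control.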
row,Structure (SMILES),microglia (anti-inflammatory activity)
1,"O=c1c(O)c(-c2ccc(O)c(O)c2)oc2ccccc12 [CMS-04P, reference compound]",80%
2,"COc1cc(-c2ccc(O)c(O)c2)nc2ccccc12 [CMS-007, 4-methoxy-2-(3,4-dihydroxyphenyl)quinoline]",85%
3,"CCOc1cc(-c2ccc(O)c(O)c2)nc2ccccc12 [CMS-023, 4-ethoxy-2-(3,4-dihydroxyphenyl)quinoline]",90%
4,"CC(C)Oc1cc(-c2ccc(O)c(O)c2)nc2ccccc12 [CMS-024, 4-isopropoxy-2-(3,4-dihydroxyphenyl)quinoline]",80%
5,"COc1ccc(/C=C/C(=O)c2cc(C)c(C)cc2O)cc1OCc1ccccc1 [CMS-086, (E)-3-(3-(benzyloxy)-4-methoxyphenyl)-1-(2-hydroxy-4,5-dimethylphenyl)prop-2-en-1-one]",70%
6,"Oc1ccc(-c2cc(OC3CCCC3)c3ccccc3n2)cc1O [CMS-121, 4-cyclopentyloxy-2-(3,4-dihydroxyphenyl)quinoline]",82%
7,"O=c1c(O)c(-c2ccc(N3CCCC3)c(O)c2)oc2c1ccc1ccccc12 [CMS-140, 3-hydroxy-2-(3-hydroxy-4-(pyrrolidin-1-yl)phenyl)-4H-benzo[h]chromen-4-one]",50%
8,"O=c1c(O)c(-c2ccc(O)c(O)c2)oc2cc(O)ccc12 [Fisetin, 3,7,3′,4′-tetrahydroxy flavone]",80%

# Tested on: Nrf2
# Assay: Nrf2 induction, SDS-PAGE and Western blotting of nuclear extracts
# Type: cell-based
# Settings: cells treated 1, 2 and 4 hr at most protective concentration
# Experimental: SDS-PAGE and immunoblotting. For immunoblotting of Nrf2, nuclear extracts were prepared as described (Schreiber, et al., Nucleic Acids Res. (1989) 17 (15), 6419) from untreated cells and cells treated with the Fisetin derivatives for 1, 2 and 4 hr. Fisetin was used as a positive control. […] Protein concentrations were determined using the BCA protein assay (Pierce). Equal amounts of protein were solubilized in 2.5× SDS-sample buffer, separated on 10% SDS-polyacrylamide gels and transferred to nitrocellulose. Equal loading and transfer of the samples was confirmed by staining the nitrocellulose with Ponceau-S. Transfers were blocked for 1 hr at room temperature with 5% nonfat milk in TBS/0.1% Tween 20 and then incubated overnight at 4° C. in the primary antibody diluted in 5% BSA in TBS/0.05% Tween 20. The primary antibodies used were: anti-Nrf2 (#SC13032; 1/1000) from Santa Cruz Biotechnology (Santa Cruz, Calif.) and anti-β-actin (#5125; 1/20,000) from Cell Signaling (Beverly, Mass.). The transfers were rinsed with TB S/0.05% Tween 20 and incubated for 1 hr at room temperature in horseradish peroxidase-goat anti-rabbit or goat anti-mouse (Biorad, Hercules, Calif.) diluted 1/5000 in 5% nonfat milk in TBS/0.1% Tween 20. The immunoblots were developed with the Super Signal reagent (Pierce, Rockford, Ill.).
# The transcription factor Nrf2 plays a key role in regulating GSH metabolism in many different cell types (Lewerenz, et al., Antioxidant & Redox Signaling. (2011) 14, 1449-1465). We have shown that Fisetin can induce Nrf2 and this correlates with its ability to enhance GSH levels (Maher, P. et al., Genes. Nutr. (2009) Sep. 10). To determine if the derivatives which can maintain GSH levels do so by increasing Nrf2 we looked at Nrf2 levels in the nuclei of derivative-treated cells using Fisetin as a positive control (Table 4). […] This was particularly true for the derivatives based on the quinoline scaffold where none of them increased Nrf2 despite being very effective at maintaining GSH levels.
# The ability of the derivatives that maintain GSH levels to induce the transcription factor Nrf2 was assayed by SDS-PAGE and Western blotting of nuclear extracts of untreated and derivative-treated cells. Fisetin treatment was used as a positive control.
row,Structure (SMILES),Nrf2 (induction of transcription factor Nrf2)
1,"O=c1c(O)c(-c2ccc(O)c(O)c2)oc2ccccc12 [CMS-04P, reference compound]",Yes
2,"COc1cc(-c2ccc(O)c(O)c2)nc2ccccc12 [CMS-007, 4-methoxy-2-(3,4-dihydroxyphenyl)quinoline]",No
3,"CCOc1cc(-c2ccc(O)c(O)c2)nc2ccccc12 [CMS-023, 4-ethoxy-2-(3,4-dihydroxyphenyl)quinoline]",No
4,"CC(C)Oc1cc(-c2ccc(O)c(O)c2)nc2ccccc12 [CMS-024, 4-isopropoxy-2-(3,4-dihydroxyphenyl)quinoline]",No
5,"COc1ccc(/C=C/C(=O)c2cc(C)c(C)cc2O)cc1OCc1ccccc1 [CMS-086, (E)-3-(3-(benzyloxy)-4-methoxyphenyl)-1-(2-hydroxy-4,5-dimethylphenyl)prop-2-en-1-one]",Yes
6,"Oc1ccc(-c2cc(OC3CCCC3)c3ccccc3n2)cc1O [CMS-121, 4-cyclopentyloxy-2-(3,4-dihydroxyphenyl)quinoline]",No
7,"O=c1c(O)c(-c2ccc(N3CCCC3)c(O)c2)oc2c1ccc1ccccc12 [CMS-140, 3-hydroxy-2-(3-hydroxy-4-(pyrrolidin-1-yl)phenyl)-4H-benzo[h]chromen-4-one]",No
8,"O=c1c(O)c(-c2ccc(O)c(O)c2)oc2cc(O)ccc12 [Fisetin, 3,7,3′,4′-tetrahydroxy flavone]",Yes
